Data as given in patent US20130183268A1, “DRUG COMBINATIONS WITH FLUORO-SUBSTITUTED OMEGA-CARBOXYARYL DIPHENYL UREA FOR THE TREATMENT AND PREVENTION OF DISEASES AND CONDITIONS” (BAYER HEALTHCARE LLC, priority 2010, published 2013).

Columns and labels:
[1] = Metabolite profile, incubation of [14C]regorafenib with liver microsomes (dog); format: in vitro ADME, Beagle dog; details: [14C]regorafenib 20 μM, liver microsomes 0.5 mg/mL, 60 min
[2] = Metabolite profile, incubation of [14C]regorafenib with liver microsomes (mouse); format: in vitro ADME, NMRI mouse; details: [14C]regorafenib 20 μM, liver microsomes 0.5 mg/mL, 60 min
Experimental: (§1) N-oxide (M-2), hydroxymethyl (M-3), de-methylated (M-4) and N-oxide-demethylated (M-5) metabolites of the fluoro-substituted diaryl urea of Formula (I) are shown below. They were identified as metabolites of regorafenib in vitro upon incubation with liver enzymes of various mammalian species (man, dog, rat, mouse). Studies reveal that its metabolites show high protein binding in man and animal species (data not shown). [table]

[3] = Metabolite profile, incubation of [14C]regorafenib with liver microsomes (rat); format: in vitro ADME, Wistar rat; details: [14C]regorafenib 20 μM, liver microsomes 0.5 mg/mL, 60 min
Experimental: as §1

[4] = Metabolite profile, incubation of [14C]regorafenib with liver microsomes (man); format: in vitro ADME; details: [14C]regorafenib 20 μM, liver microsomes 0.5 mg/mL, 60 min
Experimental: as §1

[5] = Pharmacokinetics in patients after 160 mg regorafenib co-precipitate tablet; details: for AUC Day 21 / Cmax Day 21: analyte in plasma, 160 mg regorafenib co-precipitate tablet daily, day 21, n = 9, geometric mean; for systemic exposure: colon cancer patients, 160 mg coprecipitate tablets daily for 21 days; for fold increase in Cmax / fold increase in the AUC: continuous qd dosing for 19 days, in comparison to the first dose; for Fold change AUC / Fold change Cmax: day 21 versus day 1
[6] = analyte in plasma after 160 mg regorafenib co-precipitate tablet, day 1, n = 9, geometric mean

Structure (SMILES) | % of radioactivity, Beagle dog [1] | % of radioactivity, NMRI mouse [2] | % of radioactivity, Wistar rat [3] | % of radioactivity, Man [4] | AUC Day 1 [5, 6] | Cmax Day 1 [5, 6] | AUC Day 21 [5] | Cmax Day 21 [5] | systemic exposure [5] | fold increase in Cmax [5] | fold increase in the AUC [5] | Fold change AUC [5] | Fold change Cmax [5]
CNC(=O)c1cc(Oc2ccc(NC(=O)Nc3ccc(Cl)c(C(F)(F)F)c3)c(F)c2)cc[n+]1[O-] [Example M-2, 4{4-[3-(4-chloro-3-trifluoromethylphenyl)-ureido]-3-fluorophenoxy}-1-hydroxy-pyridine-2-carboxylic acid methylamide] | 3.6% | 26.9% | 5.4% | 29.7% | 24.0 µg·h/mL | 0.764 µg/mL | 55.4 µg·h/mL | 3.57 µg/mL | very similar to regorafenib | 5 fold | 2 fold | 2.3 | 4.7
O=C(Nc1ccc(Cl)c(C(F)(F)F)c1)Nc1ccc(Oc2ccnc(C(=O)NCO)c2)cc1F [Example M-3] | 25.6% | 12% | 19% | 7.7% | – | – | – | – | – | – | – | – | –
NC(=O)c1cc(Oc2ccc(NC(=O)Nc3ccc(Cl)c(C(F)(F)F)c3)c(F)c2)cc[n+]1[O-] [Example M-5, 4{4-[3-(4-chloro-3-trifluoromethylphenyl)-ureido]-3-fluorophenoxy}-1-hydroxy-pyridine-2-carboxylic acid amide] | – | – | – | – | – | 0.0755 µg/mL | 51.8 µg·h/mL | 3.14 µg/mL | very similar to regorafenib | 42 fold | 25 fold | 25.1 | 41.6
